Broadly, the EC50 is the concentration at which the effect is half-maximal.

Data set [1] deals with SARS-CoV-2. Put plainly: Hamster model of SARS-CoV-2 disease transmission and progression, viral load (PFU). The format is in vivo, Golden Syrian Hamsters. The settings on record: 15 mg/kg. How it is done: 24 hours prior to nasal inoculation with SARS-CoV-2, Golden Syrian Hamsters were dosed with ebselen, saline and remdesivir at 15 mg/kg. Samples were taken from nares (PFU/swab) on days 1, 2 and 3, and from the nasal turbinates and cranial & caudal lung tissue (PFU/100 mg) on day 7.

The subject of data set [2] is SARS-CoV-2. As to the kind of experiment: Reduction of SARS-CoV-2 viral load in Vero E6 cells (image based assay of Jin et al.). In kind it is cell-based. The conditions noted are these: Severe acute respiratory syndrome coronavirus 2, Vero C1008, read-out: EC50, reduction in viral load in Vero E6 cells, SARS-CoV-2; ebselen 100 nM to 1000 μM in DMSO or EtOH, remdesivir 1 nM to 10 μM.

The next data set has as its system Vero E6 cells. Put plainly: Cytotoxicity / cell viability in Vero E6 cells. In kind it is cell-based. The conditions noted are these: ebselen: at ranges slightly higher than EC50.
For data set [3] the following is noted: human, in vivo, iv.

For `CCC(CC)COC(=O)[C@H](C)N[P@](=O)(OC[C@H]1O[C@@](C#N)(c2ccc3c(N)ncnn23)[C@H](O)[C@@H]1O)Oc1ccccc1` [remdesivir], the “PFU/swab (nares) Day 1” value in the data set on SARS-CoV-2 [1] (24 hours prior to nasal inoculation, saline 2.7E+04) is 1.1E+04 PFU/swab. Besides, in the data set on SARS-CoV-2 [1] (24 hours prior to nasal inoculation, saline 5.5E+02), the “PFU/swab (nares) Day 3” value is reported as 3.8E+03 PFU/swab. Also, the “PFU/swab (nares) Day 2” value in the data set with SARS-CoV-2 [1] (24 hours prior to nasal inoculation, saline 7.5E+03) was found to be 3.1E+03 PFU/swab. Further, in the data set on SARS-CoV-2 [1] (day 7, saline 4.9E+06), the “PFU/100 mg Cranial lung” value worked out at 4.4E+06 PFU/100 mg. Besides, in the data set on SARS-CoV-2 [1] (day 7, saline 5.5E+07), the “PFU/100 mg Turbinates” value is given as 4.0E+02 PFU/100 mg. In addition, in the data set with SARS-CoV-2 [1] (day 7, saline 6.1E+06), the “PFU/100 mg Caudal lung” value turned out to be 1.2E+07 PFU/100 mg. For the same compound, the EC50 in the data set on SARS-CoV-2 [2] was determined as 7 µM. Also, in the data set with Vero E6 cells, the “effect on cell viability” value is on record as “no effect on cell viability”.

As to `NC[C@H]1O[C@H](O[C@H]2[C@H](O)[C@@H](O[C@H]3O[C@H](CO)[C@@H](O)[C@H](N)[C@H]3O)[C@H](N)C[C@@H]2N)[C@H](N)C[C@@H]1O` [tobramycin], in data set [3] (4 weeks), the “% Responders (Bilateral), Conv + SRO” value is 33%; the “% Responders (Bilateral), Conventional” value worked out at 0%; the “% Responders (Bilateral), DPOAE” value worked out at 40%; the “% Responders (Bilateral), SRO” value is on record as 33%. In addition, in data set [3] (4 weeks), the “% Responders (Bilateral), WINT” value worked out at 7%; the “% Responders (Unilateral), Conv + SRO” value is given as 60%; the “% Responders (Unilateral), Conventional” value was 27%; the “% Responders (Unilateral), DPOAE” value amounted to 40%. Besides, in data set [3] (4 weeks), the “% Responders (Unilateral), SRO” value is 53%; the “% Responders (Unilateral), WINT” value was 33%; the “% Responders, Conv + SRO” value stood at 93%; the “% Responders, DPOAE” value is on record as 80%. Further, in data set [3] (4 weeks), the “% Responders, SRO” value came out at 87%; the “% Responders, TFI” value came to 8%; the “% Responders, TL” value was found to be 15%; the “% Responders, VSS” value stood at 8%. Moreover, in data set [3] (4 weeks), the “% Responders, WINT” value is given as 40%. The “% Responders, Conventional” value in data set [3] (4 weeks post-treatment) is reported as 27%.
